The record followed here is patent US7361659B2, “Pyrrazolo-pyrimidine derivatives” (Hoffmann-La Roche Inc., priority 2005, dated 2008).

As for `Cc1sc(S(N)(=O)=O)cc1NC(=O)c1cnn2c(C(F)F)cc(-c3ccc(C(F)(F)F)cc3)nc12` [Example 48, 7-Difluoromethyl-5-(4-trifluoromethyl-phenyl)-pyrazolo[1,5-a]pyrimidine-3-carboxylic acid (2-methyl-5-sulfamoyl-thiophen-3-yl)-amide], the melting point (commonly the temperature of the solid-liquid transition) was found to be 313 °C.

The molecule `Cc1sc(S(=O)(=O)NC(C)(C)CO)cc1NC(=O)c1cnn2c(C(F)(F)F)cc(-c3ccc(C(F)(F)F)cc3)nc12` [Example 49, 7-Trifluoromethyl-5-(4-trifluoromethyl-phenyl)-pyrazolo[1,5-a]pyrimidine-3-carboxylic acid [5-(2-hydroxy-1,1-dimethyl-ethylsulfamoyl)-2-methyl-thiophen-3-yl]-amide] gave a melting point of 225 °C.

In turn, `Cc1sc(S(=O)(=O)NC(C)(C)CO)cc1NC(=O)c1cnn2c(C(F)F)cc(-c3ccc(C(F)(F)F)cc3)nc12` [Example 50, 7-Difluoromethyl-5-(4-trifluoromethyl-phenyl)-pyrazolo[1,5-a]pyrimidine-3-carboxylic acid [5-(2-hydroxy-1,1-dimethyl-ethylsulfamoyl)-2-methyl-thiophen-3-yl]-amide] registered a melting point of 180 °C.

For `NS(=O)(=O)c1cnc(NC(=O)c2cnn3c(C(F)(F)F)cc(-c4ccc(C(F)(F)F)cc4)nc23)s1` [Example 51, 7-Trifluoromethyl-5-(4-trifluoromethyl-phenyl)-pyrazolo[1,5-a]pyrimidine-3-carboxylic acid (5-sulfamoyl-thiazol-2-yl)-amide], the melting point stood at 309 °C.

Consider `NS(=O)(=O)c1cnc(NC(=O)c2cnn3c(C(F)F)cc(-c4ccc(C(F)(F)F)cc4)nc23)s1` [Example 52, 7-Difluoromethyl-5-(4-trifluoromethyl-phenyl)-pyrazolo[1,5-a]pyrimidine-3-carboxylic acid (5-sulfamoyl-thiazol-2-yl)-amide], for which the melting point turned out to be 311 °C.

Turning to `CCOc1cc(-c2cc(C(F)(F)F)n3ncc(C(=O)Nc4nc(C)c(S(=O)(=O)NC(C)(CO)CO)s4)c3n2)ccc1C(F)(F)F` [Example 53, 5-(3-Ethoxy-4-trifluoromethyl-phenyl)-7-trifluoromethyl-pyrazolo[1,5-a]pyrimidine-3-carboxylic acid [5-(2-hydroxy-1-hydroxymethyl-1-methyl-ethylsulfamoyl)-4-methyl-thiazol-2-yl]-amide], the melting point turned out to be 220 °C.

As to `CN(C)CCNS(=O)(=O)c1cc(NC(=O)c2cnn3c(C(F)F)cc(-c4ccc(C(F)(F)F)cc4)nc23)c(Cl)s1` [Example 54, 7-Difluoromethyl-5-(4-trifluoromethyl-phenyl)-pyrazolo[1,5-a]pyrimidine-3-carboxylic acid [2-chloro-5-(2-dimethylamino-ethylsulfamoyl)-thiophen-3-yl]-amide], the melting point is 162 °C.

With `CN(C)CCNS(=O)(=O)c1cc(NC(=O)c2cnn3c(C(F)(F)F)cc(-c4ccc(C(F)(F)F)cc4)nc23)c(Cl)s1` [Example 55, 7-Trifluoromethyl-5-(4-trifluoromethyl-phenyl)-pyrazolo[1,5-a]pyrimidine-3-carboxylic acid [2-chloro-5-(2-dimethylamino-ethylsulfamoyl)-thiophen-3-yl]-amide], the melting point is 198 °C.

On to `CCOc1cc(-c2cc(C(F)(F)F)n3ncc(C(=O)Nc4cc(S(=O)(=O)NCCO)sc4Cl)c3n2)ccc1C(F)(F)F` [Example 56, 5-(3-Ethoxy-4-trifluoromethyl-phenyl)-7-trifluoromethyl-pyrazolo[1,5-a]pyrimidine-3-carboxylic acid [2-chloro-5-(2-hydroxy-ethylsulfamoyl)-thiophen-3-yl]-amide], for which the melting point was 250 °C.

Regarding `Cc1nc(NC(=O)c2cnn3c(C(F)F)cc(-c4ccc(C(F)(F)F)cc4)nc23)sc1S(=O)(=O)NCCN(C)C` [Example 57, 7-Difluoromethyl-5-(4-trifluoromethyl-phenyl)-pyrazolo[1,5-a]pyrimidine-3-carboxylic acid [5-(2-dimethylamino-ethylsulfamoyl)-4-methyl-thiazol-2-yl]-amide], the melting point amounted to 217 °C.
